# Measured values taken from US5641480A, “Hair care compositions comprising heteroatom containing alkyl aldonamide compounds” (Lever Brothers Company, Division of Conopco, Inc., priority 1994, dated 1997).
# Read-outs that look alike come from different tables or passages of the source.
# Tests used:
# [1] = Clarity of prototype shampoo compositions with sodium lauryl sulfate (Example 87); type: physicochemical; details: room temperature, 6 months
# Experimental: (§1) The prototype shampoo composition is as follows:
# (§2) The above formulations were prepared by admixing the above ingredients in listed order and heating the mixture to about 80° C. with rapid stirring. The mixture was then cooled to about 40° C., placed in a clear jar and stored at room temperature for 6 months.
# [2] = Critical micelle concentration, Wilhelmy plate method (Example 90); type: physicochemical
# Experimental: The critical micelle concentration (CMC) is defined as the concentration at which a surfactant forms micelles in aqueous solution. Micellization is the preferred interfacial phenomena, since certain surfactant benefits such as detergency (the solubilization of soils), foaming, wetting or emulsification depend on the formation of these aggregates in solution.
# The CMC value of C8 /C10 oxypropyl D-gluconamide was determined by plotting surface tension as a function of log(concentration) and extrapolating linear points to obtain an intersection point. The concentration at this point was taken as the CMC. The technique used was the Wilhelmy plate method and the instrument used was a Lauda Auto-Tensiometer. While wishing not to be bound to theory, it is believed that surfactants with low CMC values form micelles more readily at lower concentrations than those with high CMC values.
# [3] = Area per molecule at the water/air interface (Example 95); type: physicochemical; details: 60 °C
# From the text: The area per molecule of a surfactant at the water/air interface provides information on the degree of packing and the orientation of the adsorbed surfactant molecule. While not wishing to be bound by theory, it is believed that surfactants that have small area per molecule values tend to pack more closely at the interface than those with large area per molecule values. From the surface excess concentration at surface saturation (Γmax), the area per molecule (am) of C8 /C10 oxypropyl D-gluconamide was determined and is given by:
# am =1×10^16 /Nav Γmax
# [4] = Rosen, cited from earlier work
# [5] = Efficiency in surface tension reduction, pC20 (Example 92); type: physicochemical; details: 60 °C, estimated by extrapolation
# From the text: Since surface tension reduction depends on the replacement of water molecules at the interface by surfactant molecules, the efficiency of a surfactant in reducing interfacial tension should reflect the concentration of surfactant at the interface relative to that in bulk liquid phase. A suitable measure of efficiency with which a surfactant performs this function can be described as pC20. This is defined as the negative logarithm of the bulk phase surfactant concentration necessary to reduce the surface tension of water by 20 dyn/cm and is given as:
# pC20 =-log [C(-Δγ=20) ]=-log [C20]
# C(-Δγ=20) =C20 is the bulk phase surfactant concentration necessary to reduce the surface tension of water by 20 dyn/cm.
# In general, pC20 values are usually close to the minimum concentration needed to saturate the interface with surfactant molecules.
# [6] = Rosen, cited from earlier work; remark: listed apart in the source
# [7] = Effectiveness of adsorption, surface excess concentration at surface saturation (Example 94); type: physicochemical; details: 60 °C, estimated by extrapolation
# From the text: The surface excess concentration at surface saturation (Γmax) is defined as a measure of the effectiveness of surfactant adsorption at the water/air interface and represents the maximum value to which adsorption can be obtained. Effectiveness of adsorption is related to the interfacial area occupied by the surfactant molecule. The smaller the effective cross-sectional area of a surfactant at the interface, the greater its effectiveness of adsorption. The effectiveness of adsorption is an important factor in determining surfactant properties such as detergency, foaming, wetting or emulsification. While not wishing to be bound by theory, it is believed that surfactants that absorb effectively at the interface tend have tightly packed coherent interfacial films and often provide better surfactant benefits than those with loosely packed noncoherent films. The effectiveness of adsorption of C8 /C10 oxypropyl D-gluconamide was determined using the Gibbs equation given as: […]
# ergs/cm^2 (which is equivalent to the slope of a plot of γ
# [8] = Effectiveness in reducing surface tension (Example 93); type: physicochemical; details: 60 °C
# From the text: As mentioned before, surface tension reduction depends on the replacement of water molecules at the interface by surfactant molecules, therefore the effectiveness of a surfactant in reducing interfacial surface tension should reflect the saturated concentration of surfactant at the interface relative to that in bulk liquid phase. During this process the surface tension of water steadily decreases as bulk phase surfactant concentration increases. This will continue until the concentration reaches the critical micelle concentration (CMC), above which the surface tension remains nearly unchanged and the interface is saturated with surfactant. The surface tension at the CMC is therefore very close to the minimum interfacial tension or maximum surface pressure that the system can achieve. The surface pressure at this point, IIcmc, is a suitable measure of the effectiveness of a surfactant in reducing surface tension and is given as:
# .PI.cmc 20+2.3nRT(Γmax) log [CMC/C20 ]
# n=1 which represents the number of ions whose surface concentration changes with the change in liquid phase suffactant concentration.
# CMC/C20 =is the ratio of the critical micelle concentration to the bulk phase surfactant concentration necessary to reduce the surface tension of water by 20 dyn/cm.
# [9] = Rosen, cited from earlier work; remark: listed apart in the source
# [10] = Rosen, cited from earlier work; remark: listed apart in the source
# [11] = Surface tension at the water/air interface (Example 91); type: physicochemical; details: 60 °C
# Experimental: An important characteristic feature that surfactants have is the tendency for them to absorb at the water/air interface in an oriented manner, thereby altering the interfacial free energy of that surface. The surface free energy per unit area or surface tension (γ), is a measure of this work and may be considered as the minimum amount of work required to bring sufficient surfactant molecules to the surface.
# The surface tension (γ) value of C8 /C10 oxypropyl D-gluconamide was determined and is set forth below: […]
# zein = tested on: zein
# From the text: The zein solubilization assay was developed to determine the biological effects of surfactants on the skin. The protein is normally in soluble in water, but can be brought into solution by interaction with surfactants. The extent of zein dissolved is related to the irritation potential (M. J. Schwinger, Kolloid-Z. Z. Poly., 233, 848, 1969). The greater the zein solubilization, the greater the irritation potential of that surfactant on the skin.
# Thus, a 1% solution of surfactant (30 mls) was added to 1.5 g of zein and stirred at room temperature for 1 hour. Residual zein was collected and dried to constant weight. Differences between starting and residual weights were used to calculate % zein solubilized.
# [12] = Ross-Miles foam height assay of aldonamides (Examples 81-84); type: physicochemical; details: 0.1% aldonamide, 40° C. (if not soluble, about 5°-10° C. above Krafft point), 0 ppm hardness
# Experimental: In the Ross-Miles method, 200 mL of a suffactant solution contained in a pipette of specified dimensions with a 2.9 -mm-i.d. orifice is allowed to fall 90 cm onto 50 mL of the same solution contained in a cylindrical vessel maintained at a given temperature by means of a water jacket. The height of the foam produced in the cylindrical vessel is read immediately after all the solution has run out of the pipette and then again after a given amount of time.
# Using this method, the foam production (initial foam height in mm) and foam stability (final foam height after 10 minutes in mm) were measured at 0.1% aldonamtde concentration, 40° C. and 0 ppm (parts per million) hardness.
# [13] = Micellar shape and structure, packing parameter (Example 96); details: T=333.15° K.
# From the text: A theory of miceIlar structure, based upon the geometry of various micelle shapes and the space occupied by the surfactant has been disclosed by J. N. Israelachvili, D. J. Mitchell and B. W. Ninham in the J. Chem. Soc. Faraday Trans. 2, 1525, 72, (1976) which is given as the packing parameter (p).
# VT =V(CH3) +(nc -1)V(CH2) and represents the volume occupied by the hydrophobic groups in the miceliar core at a given temperature.
# 1c= 1.50+1.26 nc Å and represents the length of the hydrophobic group in the core.
# am =area per molecule or the cross-sectional area occupied by the hydrophilic group at the interface.
# nc =total number of carbons in the alkyl chain.
# [14] = Viscosity of prototype shampoo compositions with sodium lauryl sulfate, Brookfield Digital Viscometer (Example 88); type: physicochemical; details: vs no thickener
# Experimental: as §1, §2
# It is well known that the viscosity of a liquid composition comprising of anionic surfactant can be modified by the addition of inorganic salts, such as sodium chloride. However, in the absence of an organic modifier, high levels of salt may be necessary to achieve the required viscosity which may lead to problems of storage at cold temperature or even salting out certain ingredients. In practice, however, the viscosity of a liquid composition is modified by the simultaneous addition of thickener and small amounts of inorganic salt (viscosity cobuilder). The combined effect is greater than either one alone. The viscosity of the above prototype shampoo composition comprising various amounts of heteroatom containing alkyl aldonamide compound is as follows: […]
# [15] = Viscosity of prototype shampoo compositions of Example 86, Brookfield Digital Viscometer; type: physicochemical; details: 4.0% thickener
# From the text: The results are as follows:
# [16] = 3.0% thickener in […] sodium lauryl sulfate shampoo
# [17] = 5.0% thickener in […] sodium lauryl sulfate shampoo
Compound,"Appearance (Time) [1, 16]","Appearance (Time) [1, 17]",γ (surface tension) [11] [dyn/cm],am (area per molecule) ([3]; estimated by extrapolation) [Å^2],.PI.cmc (surface pressure) ([4]; 25 °C) [dyn/cm],CMC/C20 ([4]; 25 °C),.PI.cmc (surface pressure) ([4]; 40 °C) [dyn/cm],CMC/C20 ([4]; 40 °C),pC20 [5],Γmax (surface excess concentration at surface saturation) ([6]; 25 °C),Γmax (surface excess concentration at surface saturation) ([6]; 40 °C),Γmax (surface excess concentration at surface saturation) [7],.PI.cmc (surface pressure) ([8]; estimated by extrapolation) [dyn/cm],pC20 ([9]; 25 °C),pC20 ([9]; 40 °C),am (area per molecule) ([10]; 25 °C) [Å^2],am (area per molecule) ([10]; 40 °C) [Å^2],other results
CCCCCCCCCCCCOCCOCCOCCOCCOCCOCCOCCO [Dodecylhepta(oxyethylene) Ether],,,,61.0,38.3,14.9,38.5,13.9,5.41,2.90 × 10^-10 mole/cm^2,2.77 × 10^-10 mole/cm^2,2.71 × 10^-10 mole/cm^2,36.8,5.26,5.28,57.3,59.9,
CCCCCCCCCCCCOCCOCCOCCOCCOCCOCCOCCOCCO [Dodecylocta(oxyethylene) Ether],,,,69.0,37.2,17.3,37.3,15.4,5.39,2.52 × 10^-10 mole/cm^2,2.46 × 10^-10 mole/cm^2,2.40 × 10^-10 mole/cm^2,36.3,5.20,5.22,66.0,67.4,
O [Water],,,60.2,,,,,,,,,,,,,,,

# Second part, led by results:
"Appearance (Time) [1, 16]","Appearance (Time) [1, 17]",γ (surface tension) [11] [dyn/cm],Compound,am (area per molecule) ([3]; estimated by extrapolation) [Å^2],.PI.cmc (surface pressure) ([4]; 25 °C) [dyn/cm],CMC/C20 ([4]; 25 °C),.PI.cmc (surface pressure) ([4]; 40 °C) [dyn/cm],CMC/C20 ([4]; 40 °C),pC20 [5],Γmax (surface excess concentration at surface saturation) ([6]; 25 °C),Γmax (surface excess concentration at surface saturation) ([6]; 40 °C),Γmax (surface excess concentration at surface saturation) [7],.PI.cmc (surface pressure) ([8]; estimated by extrapolation) [dyn/cm],pC20 ([9]; 25 °C),pC20 ([9]; 40 °C),am (area per molecule) ([10]; 25 °C) [Å^2],am (area per molecule) ([10]; 40 °C) [Å^2],other results
Precipitate (2 days),Precipitate (1 hour),,"CCCCCCCCCCCCNC(=O)[C@H](O)[C@@H](O)[C@H](O)[C@H](O)CO [C12 D-Gluconamide, dodecyl D-gluconamide]",,,,,,,,,,,,,,,CMC ([2]; 60 °C): None; water solubility ([2]; 60 °C table entry / discussion): insoluble in water and can not form micelles
Clear,Clear,29.2,C8 /C10 oxypropyl D-gluconamide,,,,,,,,,,,,,,,"am (area per molecule) [3]: 43.1 Å^2; % Zein Solubilized (zein): 6%; Foam Height Initial [12]: 212 mm; Foam Height Final ([12]; after 10 minutes): 165 mm; p (packing parameter) [13]: 0.503; .PI.cmc (surface pressure) [8]: 38.5 dyn/cm; Appearance (Time) ([1]; 4.0% thickener in […] sodium lauryl sulfate shampoo): Clear; Increase (viscosity) ([14]; 1.0% thickener): 13 ×; Increase (viscosity) ([14]; 2.0% thickener): 27 ×; Increase (viscosity) ([14]; 3.0% thickener): 80 ×; Increase (viscosity) ([14]; 4.0% thickener): 148 ×; Increase (viscosity) ([14]; 5.0% thickener): 860 ×; increased the viscosity of that composition ([15]; Example 86 shampoo (2395/22)): 109 times; Viscosity ([15]; Example 86 shampoo, 22° C.): 2395 Centipoise"
